One data set concerns horse erythrocytes. Particulars: TRIS buffer pH 7.2, 1 h, 37°C, absorbance 540 nm, relative to melittin 100 μM, ± confidence interval (α = 0.05). A digest of the protocol: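 Horse erythrocytes washed in 10 mM Tris, 150 mM NaCl, pH 7.2 were mixed 1:1 with compound solutions at 750, 500, 300 and 100 μM and shaken 1 h at 37°C. Hemoglobin release read at 540 nm in supernatant; % hemolysis relative to buffer and melittin control.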

Data set [1] in a line: HPLC retention time as indicator of relative hydrophobicity. Type of data set: physicochemical. To be noted: chromatographic, Kromasil 100 C18 (4.6 mm × 40 mm, 3 μm), linear gradient 2 to 100% B over 12 min, 1 mL/min; A 0.1% aqueous TFA, B 0.1% TFA in CH3CN; used as indicator of relative hydrophobicity. Summed up: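 Reversed-phase HPLC on Kromasil 100 C18 (4.6 × 40 mm, 3 μm), 0.1% TFA in water/acetonitrile, linear 2–100% B at 1 mL/min over 7 min (method A, UV 220 nm) or 12 min (method B). Retention time serves as relative hydrophobicity.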

Non-standard residues stand in square brackets, D forms with d. Residues, ends and D or L forms follow the SMILES beside them. *: point of attachment. Butyryl = CCCC(=O)*

For the compound `CCCC(=O)NCCCC[C@H](NC(=O)[C@H](CCCCN)NC(=O)[C@H](CC(C)C)NC(=O)[C@@H](NC(=O)[C@H](CCCCN)NC(=O)[C@H](CCCCN)NC(=O)[C@@H](Cc1ccccc1)NC(=O)[C@H](CC(C)C)NC(=O)[C@H](CCCCN)NC(=O)[C@H](CCCCN)NC(=O)[C@H](C)NC(=O)[C@@H](NC(=O)[C@H](CCC(N)=O)NC(=O)[C@H](CC(C)C)NC(=O)CNC(=O)[C@H](C)NC(=O)[C@H](C)NC(=O)[C@H](CC(=O)O)NC(=O)[C@H](CC(=O)O)NC(=O)[C@H](CCCCN)NC(=O)[C@H](C)NC(=O)[C@H](CO)NC(=O)[C@H](CC(N)=O)NC(=O)[C@@H](NC(=O)[C@H](CCCNC(=N)N)NC(C)=O)[C@@H](C)CC)[C@@H](C)CC)[C@@H](C)CC)C(=O)N[C@@H](CC(C)C)C(N)=O` [flg15-BP475] (Ac-RINSAKDDAAGLQIAKKL[dF]KKILKK(Butyryl)L-NH2), in the data set on horse erythrocytes, the “Percent hemolysis at 50 μM” value came out at 7 ± 0.6%, the “Percent hemolysis at 150 μM” value was 28 ± 2.3%, the “Percent hemolysis at 250 μM” value came to 43 ± 2.7% and the “Percent hemolysis at 375 μM” value was determined as 46 ± 3.6%. Moreover, the “tR (min), HPLC retention time (method B)” value in data set [1] was 6.79 min.

Consider `CCCC(=O)NCCCC[C@H](NC(=O)[C@H](CCCCN)NC(=O)[C@H](CC(C)C)NC(=O)[C@@H](NC(=O)[C@H](CCCCN)NC(=O)[C@H](CCCCN)NC(=O)[C@@H](Cc1ccccc1)NC(=O)[C@H](CC(C)C)NC(=O)[C@H](CCCCN)NC(=O)[C@H](CCCCN)NC(=O)[C@H](Cc1c[nH]cn1)NC(=O)[C@@H](NC(=O)[C@H](Cc1c[nH]cn1)NC(=O)[C@@H](NC(=O)CNC(=O)[C@H](Cc1ccc(O)cc1)NC(C)=O)[C@@H](C)CC)[C@@H](C)O)[C@@H](C)CC)C(=O)N[C@@H](CC(C)C)C(N)=O` [PIP1-BP475] (Ac-YGIHTHKKL[dF]KKILKK(Butyryl)L-NH2), for which, in the data set with horse erythrocytes, the “Percent hemolysis at 50 μM” value stood at 4 ± 0.4%, the “Percent hemolysis at 150 μM” value is listed as 11 ± 0.5%, the “Percent hemolysis at 250 μM” value is 18 ± 0.1% and the “Percent hemolysis at 375 μM” value was determined as 24 ± 0.5%. Further, in data set [1], the “tR (min), HPLC retention time (method B)” value stood at 5.55 min.

With RINSAKDDAAGLQIA-OH [flg15], in the data set with horse erythrocytes, the “Percent hemolysis at 50 μM” value is on record as 0 ± 0%, the “Percent hemolysis at 150 μM” value amounted to 0 ± 0%, the “Percent hemolysis at 250 μM” value was 0 ± 0% and the “Percent hemolysis at 375 μM” value is 0 ± 0%.

Turning to YGIHTH-NH2 [PIP1], in the data set on horse erythrocytes, the “Percent hemolysis at 50 μM” value is 4 ± 0.8%, the “Percent hemolysis at 150 μM” value is on record as 0.5 ± 0.3%, the “Percent hemolysis at 250 μM” value worked out at 0 ± 2% and the “Percent hemolysis at 375 μM” value is listed as 1 ± 0.1%.

For the origin of these results see paper PMC9238401, “Peptide Conjugates Derived from flg15, Pep13, and PIP1 That Are Active against Plant-Pathogenic Bacteria and Trigger Plant Defense Responses” (Applied and Environmental Microbiology, 2022).
